Measured values published in patent US11285156B2, “Substituted piperazines as KRAS G12C inhibitors” (Amgen Inc., priority 2018, dated 2022).
Where two headings read alike, the source gives them in different places.

How the values were obtained:
[1] = target: GDP-bound KRAS protein (aa 1-169), containing both G12C and C118A amino acid substitutions (Homo sapiens (Human), UniProt P01116, C118A/G12C); experiment: Coupled nucleotide exchange assay (SOS-mediated nucleotide exchange, AlphaScreen); format: biochemical; details: 5 min compound pre-incubation; for IC50: read-out: Coupled exchange IC50 (5 min; μM)
Sequence of GDP-bound KRAS protein (aa 1-169), containing both G12C and C118A amino acid substitutions (P01116 other isoform, or with tags, fused parts or gaps G12C/C118A): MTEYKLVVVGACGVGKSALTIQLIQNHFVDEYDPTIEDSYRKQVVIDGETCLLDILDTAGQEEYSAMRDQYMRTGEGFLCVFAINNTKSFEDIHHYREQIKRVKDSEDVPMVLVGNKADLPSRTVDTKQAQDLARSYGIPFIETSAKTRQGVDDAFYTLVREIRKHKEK

[2] = system: Phosphorylation of ERK1/2 in MIA PaCa-2 cells; experiment: Phospho-ERK1/2 MSD assay in MIA PaCa-2 cells; format: cell-based; details: Homo sapiens, MIA PaCa-2, 2 h, read-out: p-ERK IC50 (2 h, MiaPaCa-2; μM)
In short: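 Phospho-ERK1/2 measured by MSD electrochemiluminescence kit in RIPA lysates of MIA PaCa-2 cells. Cells were treated with compound titrations for 2 or 4 h at 37 °C, 5% CO2, followed by a 10 min pulse of 10 ng/mL EGF.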

[3] = system: Phosphorylation of ERK1/2 in A549 cells; experiment: Phospho-ERK1/2 MSD assay in A549 cells; format: cell-based; details: Homo sapiens, A549, 2 h, read-out: p-ERK IC50 (2 h, A549; μM)
In short: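 Readout: MSD phospho-ERK1/2 signal after compound (2 or 4 h) and 10 min EGF stimulation at 10 ng/mL.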

[4] = 2 h compound treatment, MIA PaCa-2 cells, EGF stimulated
[5] = 2 h compound treatment, A549 cells, EGF stimulated

Row | Structure (SMILES) | Coupled exchange IC50 (5 min; μM) [1] [µM] | IC50 [2, 4] [µM] | IC50 [3, 5] [µM] | IC50 [1] [µM] | IC50 [2] [µM] | IC50 [3] [µM]
1 | C=CC(=O)N1C[C@H](C)N(c2nc(=O)n(-c3c(C)ccnc3C(C)C)c3nc(-c4ccccc4S(C)(=O)=O)c(Cl)cc23)C[C@H]1C [Example 210, 4-((2S,5R)-4-Acryloyl-2,5-dimethylpiperazin-1-yl)-6-chloro-1-(2-isopropyl-4-methylpyridin-3-yl)-7-(2-(methylsulfonyl)phenyl)pyrido[2,3-d]pyrimidin-2(1H)-one] | 0.049 | 0.039 | > 7.5 | – | – | –
2 | C=CC(=O)N1C[C@H](C)N(c2nc(=O)n(-c3c(C)cc([S+](C)[O-])cc3C(C)C)c3nc(-c4ccccc4C)c(Cl)cc23)C[C@H]1C (stereo partly drawn) [Example 213, 4-((2S,5R)-4-Acryloyl-2,5-dimethylpiperazin-1-yl)-6-chloro-1-(2-isopropyl-6-methyl-4-(methylsulfinyl)phenyl)-7-(o-tolyl)pyrido[2,3-d]pyrimidin-2(1H)-one] | – | 0.104 | > 7.5 | 0.182 | – | –
3 | C=CC(=O)N1C[C@H](C)N(C2=NC(=O)CN(c3c(C)ccnc3C(C)C)c3nc(-c4ccccc4F)c(Cl)cc32)C[C@H]1C [Example 218, 5-((2S,5R)-4-Acryloyl-2,5-dimethylpiperazin-1-yl)-7-chloro-8-(2-fluorophenyl)-1-(2-isopropyl-4-methylpyridin-3-yl)-1,2-dihydro-3H-pyrido[2,3-e][1,4]diazepin-3-one] | – | – | – | 0.094 | 0.035 | > 7.5
4 | C=CC(=O)N1C[C@H](C)N(c2nc(=O)n(-c3c(C(C)C)nc(N)nc3C(C)C)c3nc(-c4ccccc4F)c(Cl)cc23)C[C@H]1C [Example 229, 4-((2S,5R)-4-Acryloyl-2,5-dimethylpiperazin-1-yl)-1-(2-amino-4,6-diisopropylpyrimidin-5-yl)-6-chloro-7-(2-fluorophenyl)pyrido[2,3-d]pyrimidin-2(1H)-one] | – | 0.032 | > 7.5 | 0.071 | – | –
